Source: patent US6605602B1, “Method of treating BK virus nephropathy” (University of Pittsburgh-of the Commonwealth System of …, priority 2001, dated 2003)

What was measured:
[1] = within 24 hours of administration; usual dosage 5 mg/kg; cited from earlier work
[2] = tested on: polyoma viral DNA replication; conditions: in vitro studies; cited from earlier work
JC virus = conditions: patients, infection caused by JC virus; cited from earlier work
[3] = Serum creatinine of cidofovir-treated BKVN renal transplant patients; assay type: in vivo, human; set-up: Current Creatinine: unit: mg/dl
Protocol: Four patients were treated with cidofovir at a dosage level of […], 2-3 times weekly. This is […] of the recommended dose of 5 mg/kg. In addition, cidofovir was administered without probenecid.
Subsequently, the serum creatinine progressively rose to 8 mg/dl. At this point, a combination of IV IgG, high dose steroids and a single dose of cidofovir (1 mg/kg IV without probenecid) was administered.

BK virus (BKV) = test: Cidofovir treatment of renal transplant recipients with BKV nephropathy; BKV viral load by TaqMan QPCR; assay type: in vivo, human
Protocol: Nucleic acid was extracted from urine and plasma specimens (150 μl of urine or plasma per specimen) using the Qui Amp Viral RNA Minikit, commercially available from Qiagen, Inc. The extraction procedure was performed according to the manufacturer's instructions provided with the kit.
A BKV gene sequence from the VP-1 region was amplified by the real-time TaqMan QPCR assay using the following primers and probe. The forward BKVN primer had the sequence 5′-[…]-3′ (SEQ ID NO. 1) and a Tm of 59° C. The reverse BKVN primer had the sequence 5′-[…]-3′ (SEQ ID NO. 2) and a Tm of 59° C. The TaqMan probe had the sequence 5′-[…]-3′ (SEQ ID NO. 4) and a Tm of 68° C. The TaqMan probe was labeled at the 5′ end with a FAM dye and at the 3′ end with a TAMRA dye. […]
In order to generate a positive control, a BKV gene sequence from the VP-1 region encompassing the TaqMan primer amplicon was cloned in a vector using the pGEM-T PCR cloning system (Promega, Madison, Wis.). The above sequence was then quantitated using UV spectrophotometry in order to calculate the copy number for a master standard positive control. A 10× serial dilution of standard positive control, with copies ranging from 10^7 to 10^10 was made and used to generate a standard curve with each quantitative assay. […] The urinary viral load was expressed as BKV copies/μl of urine. The plasma viral load was expressed as BKV copies/μl. […]

[4] = contraindicated in patients with impaired renal function; cited from earlier work

Row | SMILES | dose excreted in the urine unchanged [1] | inhibition of polyoma viral DNA replication [2] | effect in progressive multifocal leukoencephalopathy (JC virus) | Current Creatinine ([3]; Patient 1, Post Urethral valve, 3 doses (20-20-40 mg)) | Current Creatinine ([3]; Patient 2, Diabetic Nephropathy, 3 doses (70-35-15 mg)) | Current Creatinine ([3]; Patient 3, Renal Dysplasia, 1 dose (20 mg)) | Current Creatinine ([3]; Patient 4, IgA Nephropathy, 4 doses (200-200-200-70 mg)) | serum creatinine after treatment ([3]; case report Patient #1, after resuming full immunosuppression, had risen to 8 mg/dl before treatment) | BKV in urine and blood samples by QPCR (BK virus (BKV); case report Patient #1, two months after single dose 1 mg/kg IV without probenecid, combined with IV IgG and high dose steroids) | clearance of BKV viruria, number of doses needed (BK virus (BKV); four BKVN patients, 0.25 to 1.0 mg/kg, 2-3 times weekly, without probenecid) | nephrotoxicity [4]
1 | Nc1ccn(C[C@@H](CO)OCP(=O)(O)O)c(=O)n1 [cidofovir, (S)-1-(3-hydroxy-2-phosphonylmethoxypropyl) cytosine] | 75-80% | inhibit polyoma viral DNA replication | reportedly effective | 1.8 | 3.2 | 1.7 | 3 | 1.7 to 1.9 mg/dL | Neither sample was amplifiable for BKV | 2-4 doses | nephrotoxic
2 | Nc1ccn([C@@H]2O[C@H](CO)[C@@H](O)[C@@H]2O)c(=O)n1 [cytosine arabinoside] |  | inhibit polyoma viral DNA replication |  |  |  |  |  |  |  |  | 
